Measured values: patent publication EP0097071A1, “Benzhydryl sulfinylacetamide derivatives and their therapeutical use” (LABORATOIRE L. LAFON Société anonyme dite:, priority 1982, dated 1983)

How the values were obtained:
SNC = assay: Essential activity on the CNS (Tableau I and conclusions of the neuropsychopharmacological study); format: in vivo; conditions: in vivo
Source text: Dans le tableau I ci-après, on a consigné un certain nombre de composés selon la formule I de façon nullement limitative, en mentionnant l'activité essentielle sur le SNC.
Les composés de formule I agissent tous sur le SNC. Les produits des exemples 1-3 et 7-8 sont des agents stimulants, en revanche les produits des exemples 4-6 sont des agents sédatifs.

[1] = cited from earlier work
souris mâle [2] = assay: Pentobarbital-induced sleep duration; format: in vivo
Source text: Les composés selon l'invention se distinguent du benzhydrylsulfinylacétamide (CRL 40476) précité par une différence d'action vis-à-vis du sommeil barbiturique. […]. Cette différence d'action qui est intéressante sur le plan thérapeutique est illustrée par le tableau IV

souris [3] = assay: Motility reduced by hypoxic aggression (acute hypobaric anoxia); format: in vivo
Procedure: (§1) On a résumé ci-après les résultats des essais pharmacologiques qui ont été entrepris avec les produits selon la présente addition. Dans ces essais, les produits de formule I à étudier ont été administrés par voie intrapéritonéale, en suspension dans une solution aqueuse de gomme arabique, sous un volume de 20 ml/kg chez la souris mâle et sous un volume de 5 ml/kg chez le rat mâle.
Une demi-heure après avoir reçu le CRL 40933, les souris (10 par dose, 20 témoins) sont soumises à une anoxie hypobare aiguë [dépression de 600 mm Hg (soit environ 8 x 10^4 pascals) en 90 s, puis détente de 45 s], puis elles sont placées en actimètre où leur motilité est enregistrée pendant 10 min.

souris [4] = assay: Spontaneous motility (actimeter); format: in vivo
Procedure: as §1
Une demi-heure, après avoir reçu le CRL 40933, les souris (6 par dose, 12 témoins) sont placées en actimètre où leur motilité est enregistrée pendant 30 min.

Solubility = conditions: for solubility: water
souris [5] = assay: Intergroup aggressiveness; format: in vivo; conditions: for agressivité intergroupes (nombre de combats): dose not stated
Procedure: as §1
Après avoir séjourné pendant 3 semaines dans chacune des moitiés d'une cage séparées par une cloison opaque, des groupes de 3 souris reçoivent le CRL 40933. 30 min plus tard, les deux groupes d'une même cage sont réunis par retrait de la cloison et on note le nombre de combats qui surviennent en 10 min.

souris mâle [6] = assay: Toxicity, DL-0; format: in vivo; conditions: i.p.
Procedure: as §1
La toxicité a été étudiée chez la souris mâle. Les résultats relatifs à la DL-0 (dose minimale non mortelle) sont donnés dans le tableau II ci-après.

souris [7] = assay: Motility reduced by habituation to the enclosure; format: in vivo
Procedure: as §1
Après 18 h de séjour dans les actimètres, les souris (6 par dose, 12 témoins) reçoivent le CRL 40933. Elles sont aussitôt replacées dans leurs enceintes respectives et, 30 min plus tard, on enregistre leur motilité pendant 30 min.

souris [8] = assay: Interaction with apomorphine, mouse; format: in vivo
Procedure: as §1
Des lots de 6 souris par dose reçoivent le CRL 40933 0,5 h avant l'injection sous-cutanée d'apomorphine administrée à la dose de 1 ou 16 mg/kg.

souris [9] = assay: Interaction with reserpine; format: in vivo; conditions: 128 mg/kg i.p.
Procedure: as §1
Quatre heures après l'injection intrapéritonéale de 2,5 mg/kg de réserpine, des lots de 6 souris reçoivent le CRL 40933.

souris [10] = assay: Behavioural despair (forced immersion); format: in vivo; conditions: 32 mg/kg et 128 mg/kg i.p.
Procedure: as §1
Une demi-heure après avoir reçu le CRL 40933, des lots de 10 souris par dose sont placés dans un espace restreint rempli d'eau sur une hauteur de 6 cm; on note la durée d'immobilité entre la 2e et la 6e minute suivant l'immersion.

souris [11] = assay: Electroshock; format: in vivo; conditions: dose not stated
Procedure: as §1
(§2) Les essais sont effectués sur des lots de 10 souris (par dose) 0,5 h après l'administration du CRL 40933.

souris [12] = assay: Interaction with oxotremorine; format: in vivo
Procedure: as §1
Le CRL 40933 est administré à des lots de 6 souris 0,5 h avant l'injection intrapéritonéale de 0,5 mg/kg d'oxotrémorine.

souris [13] = assay: Four plates test; format: in vivo; conditions: 0,5 h after administration, dose not stated
Procedure: as §1, §2

rats = assay: Interaction with amphetamine (stereotypies); format: in vivo; conditions: rat; amphétamine 2 mg/kg i.p.; doses used, not stated
Procedure: as §1
L'amphétamine (2 mg/kg)est injectée par voie intrapéritonéale à des lots de 6 rats, 30 min après l'administration de CRL 40933.

souris [14] = assay: Traction test; format: in vivo; conditions: 0,5 h after administration, dose not stated
Procedure: as §1, §2

rats mâles = assay: Global behaviour and reactivities, rat; format: in vivo; conditions: 64 mg/kg i.p.
Procedure: as §1
(§3) Pour apprécier le comportement global et les réactivités, des lots de six animaux (souris mâles ou rats mâles) ont été observés avant administration de chaque produit, puis 15 min, 30 min, 1 h, 2 h, 3 h et 24 h après administration de chaque produit. Les résultats sont consignés dans le tableau III ci-après, […]

souris [15] = assay: Asphyxic anoxia (gallamine triethiodide); format: in vivo; conditions: dose not stated
Procedure: as §1
Des lots de 10 souris par dose reçoivent le CRL 40933 30 min avant l'administration intrapéritonéale de 32 mg/kg de triiodoéthylate de gallamine.

rat = assay: Interaction with apomorphine, rat; format: in vivo; conditions: apomorphine 0,5 mg/kg s.c., dose not stated
Procedure: as §1
Le CRL 40933 est administré à des lots de 6 rats 0,5 h avant l'injection sous-cutanée de 0,5 mg/kg d'apomorphine.

souris mâles = assay: Global behaviour and reactivities, mouse; format: in vivo; conditions: souris
Procedure: as §1, §3

souris [16] = assay: Interaction with barbital (sleep); format: in vivo
Procedure: as §1
Une demi-heure après l'administration de CRL 40933, des lots de 10 souris reçoivent une injection intrapéritonéale de 220 mg/kg de barbital.

[17] = dose 128 mg/kg i.p., 0,5 h before pentobarbital

SMILES: NC(=O)C[S+]([O-])C(c1ccccc1)c1ccccc1 (stereo not drawn) [CRL 40476, benzhydrylsulfinylacétamide, reference compound]
- Activité sur le SNC (SNC): stimulant
- excitation avec hyperréactivité ([1]; in vivo): présence
- potentialisation des effets de l'apomorphine et de l'amphétamine ([1]; in vivo): absence
- stéréotypies ([1]; sauf à fortes doses): absence
- Action sur la durée du sommeil induit par le pentobarbital (50 mg/kg i.p.) effet (souris mâle [2]; dose de 8 à 256 mg/kg i.p., 0,5 h before pentobarbital): (b) (pas de modification significative de la durée du sommeil.)
- durée du sommeil barbiturique induit par le pentobarbital (souris mâle [2]; pentobarbital 50 mg/kg i.p. 0,5 h after i.p. test product, dose not stated): ne modifie pas

SMILES: O=C(C[S+]([O-])C(c1ccccc1)c1ccccc1)N1CCCCC1 (stereo not drawn) [Exemple 5, N-(benzhydrylsulfinylacétyl)-pipéridine]
- mobilité réduite (agression hypoxique) (souris [3]; dose not stated): n'agit pas nettement
- motilité spontanée (souris [4]; all doses used (8 mg/kg à 256 mg/kg), intensity increasing with dose): hypomotilité
- solubility (Solubility): < 1000 µg/mL
- Activité sur le SNC (SNC): sédatif
- conclusion of the neuropsychopharmacological study: main type of CNS effect (SNC): type sédatif
- agressivité intergroupes (souris [5]; 32 mg/kg i.p.): diminue de moitié
- agressivité intergroupes (nombre de combats) (souris [5]): effet antiagressif
- DL-O (souris mâle [6]): supérieure à 1024 mg/kg
- mobilité réduite (habituation à l'enceinte) (souris [7]; souris, dose not stated): n'agit pas nettement
- Action sur la durée du sommeil induit par le pentobarbital (50 mg/kg i.p.) effet (souris mâle [2]; [17]): (a)

SMILES: CNC(=O)C[S+]([O-])C(c1ccccc1)c1ccccc1 (stereo not drawn) [Exemple 1, N-méthyl-benzhydrylsulfinylacétamide]
- hypothermie induite par l'apomorphine (souris [8]; 128 mg/kg i.p.): ne s'oppose pas
- own effect on temperature (souris [8]; 128 mg/kg i.p.): hypothermisant
- comportement de verticalisation et stéréotypies (apomorphine) (souris [8]; dose not stated): ne modifie pas
- hypothermie induite par la réserpine (souris [9]): antagonise
- ptôsis réserpinique (souris [9]): sans modifier
- durée d'immobilité de la souris placée en immersion forcée (souris [10]): diminue nettement
- effets convulsivants de l'électrochoc (souris [11]): ne s'oppose pas
- récupération motrice après séjour bref dans une enceinte à pression réduite (souris [3]; 128 mg/kg i.p.): amélioration modérée (mais non significative)
- action hypothermisante de l'oxotrémorine (souris [12]; 8 mg/kg à 128 mg/kg i.p.): s'oppose modérément
- signes de stimulation cholinergique périphérique dus à l'oxotrémorine (souris [12]; dose not stated): laisse pratiquement inchangés
- tremblements induits par l'oxotrémorine (souris [12]; dose not stated): ne modifie pas
- nombre de passages punis (souris [13]): n'entraîne pas d'augmentation
- motilité spontanée (souris [4]; 32 mg/kg et 128 mg/kg i.p.): augmentation modérée
- stéréotypies amphétaminiques (rats): ne modifie pratiquement pas
- solubilité dans l'éther et l'acétate d'éthyle (Solubility): insoluble
- solubilité dans le méthanol, l'éthanol et l'acétoné (Solubility): soluble
- solubility (Solubility): < 1000 µg/mL
- Activité sur le SNC (SNC): stimulant
- conclusion of the neuropsychopharmacological study: main type of CNS effect (SNC): composante excitante
- déficit moteur (traction) (souris [14]): ne provoque pas d'incapacité motrice majeure
- Observations (comportement global et réactivités) (rats mâles): mydriase pendant 3 h
- agressivité intergroupes (nombre de combats) (souris [5]): ne modifie pas nettement
- DL-O (souris mâle [6]): supérieure à 256 mg/kg
- délai d'apparition des convulsions et de la mort consécutives à une anoxie asphyxique (souris [15]): ne modifie pas
- activité motrice chez la souris habituée à son enceinte (souris [7]; 8 mg/kg, 32 mg/kg et surtout 128 mg/kg i.p.): reprise d'activité motrice
- stéréotypies induites par l'apomorphine (rat): laisse inchangées
- Action sur la durée du sommeil induit par le pentobarbital (50 mg/kg i.p.) effet (souris mâle [2]; [17]): (a)
- Observations (comportement global et réactivités) (souris mâles; 64 mg/kg i.p.): excitation
- Observations (comportement global et réactivités) (souris mâles; 128 mg/kg i.p.): excitation - hypothermie (-1,5°C) pendant 0,5 h
- hypothermie (souris mâles; 128 mg/kg i.p.): -1,5 °C
- Observations (comportement global et réactivités) (souris mâles; 256 mg/kg i.p.): dyspnée, excitation, démarche titu-bante
- mortalité (souris mâles; 256 mg/kg i.p.): pas de mortalité
- durée du sommeil barbiturique (souris [16]; 32 mg/kg i.p.): n'entraîne pas de modifications sensibles
- nombre de souris endormies (souris [16]; 32 mg/kg i.p.): diminution nette
- durée du sommeil barbiturique (souris [16]; 128 mg/kg i.p.): diminue nettement
